In PubChem BioAssay (NCI):
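96-well plates; 48 h exposure; 5 concentrations. Endpoints by linear interpolation between flanking doses. Not reached: highest tested concentration assigned. GI50 = concentration required for 50% inhibition of growth. TGI denotes the concentration required for complete inhibition of growth.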

Legend:
Experiment in all cases: NCI tumour cell line growth inhibition, 48 h
[1] = tested on: 786-0 renal
[2] = tested on: A498 renal
[3] = tested on: A549 NSCLC
[4] = tested on: ACHN renal
[5] = tested on: BT-549 breast
[6] = tested on: CAKI-1 renal
[7] = tested on: CCRF-CEM leukemia
[8] = tested on: COLO 205 colon
[9] = tested on: DU-145 prostate
[10] = tested on: EKVX NSCLC
[11] = tested on: HCC-2998 colon
[12] = tested on: HCT-116 colon
[13] = tested on: HCT-15 colon
[14] = tested on: HL-60(TB) leukemia
[15] = tested on: HOP-62 NSCLC
[16] = tested on: HOP-92 NSCLC
[17] = tested on: HS 578T breast
[18] = tested on: HT29 colon
[19] = tested on: IGROV1 ovarian
[20] = tested on: K-562 leukemia
[21] = tested on: KM12 colon
[22] = tested on: LOX IMVI melanoma
[23] = tested on: M14 melanoma
[24] = tested on: MALME-3M melanoma
[25] = tested on: MCF7 breast
[26] = tested on: MDA-MB-231 breast
[27] = tested on: MDA-MB-435
[28] = tested on: MDA-MB-468 breast
[29] = tested on: MOLT-4 leukemia
[30] = tested on: NCI-H226 lung
[31] = tested on: NCI-H23 lung
[32] = tested on: NCI-H460 lung
[33] = tested on: NCI-H522 lung
[34] = tested on: NCI/ADR-RES ovarian
[35] = tested on: OVCAR-3 ovarian
[36] = tested on: OVCAR-4 ovarian
[37] = tested on: OVCAR-5 ovarian
[38] = tested on: OVCAR-8 ovarian
[39] = tested on: PC-3 prostate
[40] = tested on: RPMI-8226 leukemia
[41] = tested on: SF-268 CNS
[42] = tested on: SF-295 CNS
[43] = tested on: SF-539 CNS
[44] = tested on: SK-MEL-2 melanoma
[45] = tested on: SK-MEL-28 melanoma
[46] = tested on: SK-MEL-5 melanoma
[47] = tested on: SK-OV-3 ovarian
[48] = tested on: SN12C renal
[49] = tested on: SNB-19 CNS
[50] = tested on: SNB-75 CNS
[51] = tested on: SR leukemia
[52] = tested on: SW-620 colon
[53] = tested on: T-47D breast
[54] = tested on: TK-10 renal
[55] = tested on: U251 CNS
[56] = tested on: UACC-257 melanoma
[57] = tested on: UACC-62 melanoma
[58] = tested on: UO-31 renal

SMILES: COc1cc(/C=C/C(=O)c2ccc(C)cc2)ccc1Oc1nc(Nc2ccc(F)cc2)nc(N(C)C)n1
- GI50 [1]: 13.3 µM
- TGI [1]: 53.6 µM
- GI50 [2]: 41.8 µM
- TGI [2]: > 100 µM
- GI50 [3]: 45.8 µM
- TGI [3]: > 100 µM
- GI50 [4]: 9.58 µM
- TGI [4]: 30.7 µM
- GI50 [5]: 6.27 µM
- TGI [5]: 26.8 µM
- GI50 [6]: 6.43 µM
- TGI [6]: > 100 µM
- GI50 [7]: 3.92 µM
- TGI [7]: > 100 µM
- GI50 [8]: 41.7 µM
- TGI [8]: > 100 µM
- GI50 [9]: 25.8 µM
- TGI [9]: > 100 µM
- GI50 [10]: 6.71 µM
- TGI [10]: > 100 µM
- GI50 [11]: 20.5 µM
- TGI [11]: 73.4 µM
- GI50 [12]: 2.28 µM
- TGI [12]: 5.85 µM
- GI50 [13]: 4.73 µM
- TGI [13]: 16.8 µM
- GI50 [14]: 19.1 µM
- TGI [14]: > 100 µM
- GI50 [15]: 32.2 µM
- TGI [15]: > 100 µM
- GI50 [16]: 4.57 µM
- TGI [16]: 57.3 µM
- GI50 [17]: 7.24 µM
- TGI [17]: 89.5 µM
- GI50 [18]: 8.15 µM
- TGI [18]: 37.5 µM
- GI50 [19]: 13.8 µM
- TGI [19]: 36.9 µM
- GI50 [20]: 4.2 µM
- TGI [20]: > 100 µM
- GI50 [21]: 19.3 µM
- TGI [21]: > 100 µM
- GI50 [22]: 1.84 µM
- TGI [22]: 3.51 µM
- GI50 [23]: 14.7 µM
- TGI [23]: 54.3 µM
- GI50 [24]: 15.4 µM
- TGI [24]: 33.3 µM
- GI50 [25]: 3.57 µM
- TGI [25]: 20.2 µM
- GI50 [26]: 5.24 µM
- TGI [26]: 18.7 µM
- GI50 [27]: 11.4 µM
- TGI [27]: 28.4 µM
- GI50 [28]: 4.64 µM
- TGI [28]: 31.8 µM
- GI50 [29]: 2.8 µM
- TGI [29]: 27.7 µM
- GI50 [30]: 5.22 µM
- TGI [30]: 19.6 µM
- GI50 [31]: 5.52 µM
- TGI [31]: 27.7 µM
- GI50 [32]: 12.1 µM
- TGI [32]: 42.8 µM
- GI50 [33]: 9.76 µM
- TGI [33]: 53.2 µM
- GI50 [34]: 5.97 µM
- TGI [34]: 27.5 µM
- GI50 [35]: 13 µM
- TGI [35]: > 100 µM
- GI50 [36]: 7.94 µM
- TGI [36]: 74.5 µM
- GI50 [37]: 16.5 µM
- TGI [37]: 68 µM
- GI50 [38]: 7.19 µM
- TGI [38]: 82.2 µM
- GI50 [39]: 8.86 µM
- TGI [39]: > 100 µM
- GI50 [40]: 3 µM
- TGI [40]: > 100 µM
- GI50 [41]: 13.9 µM
- TGI [41]: > 100 µM
- GI50 [42]: 8.61 µM
- TGI [42]: 44.3 µM
- GI50 [43]: 7.64 µM
- TGI [43]: 20.1 µM
- GI50 [44]: 8.83 µM
- TGI [44]: 67.4 µM
- GI50 [45]: 12.3 µM
- TGI [45]: 31.3 µM
- GI50 [46]: 5.14 µM
- TGI [46]: 21.7 µM
- GI50 [47]: 48.9 µM
- TGI [47]: > 100 µM
- GI50 [48]: 3.89 µM
- TGI [48]: 20.3 µM
- GI50 [49]: 11.1 µM
- TGI [49]: 27.3 µM
- GI50 [50]: 15.4 µM
- TGI [50]: > 100 µM
- GI50 [51]: 3.25 µM
- TGI [51]: 70.6 µM
- GI50 [52]: 2.36 µM
- TGI [52]: 5.75 µM
- GI50 [53]: 3.57 µM
- TGI [53]: > 100 µM
- GI50 [54]: 18.2 µM
- TGI [54]: > 100 µM
- GI50 [55]: 3.32 µM
- TGI [55]: 28.8 µM
- GI50 [56]: 8.76 µM
- TGI [56]: > 100 µM
- GI50 [57]: 10.1 µM
- TGI [57]: 42.8 µM
- GI50 [58]: 4.2 µM
- TGI [58]: 44.1 µM
